In one series the target is T1, RAGE/CML-BSA (Homo sapiens, UniProt Q15109).
T1 construct: purchased R&D Systems (Minneapolis, Minn.)
The experiment in a line: Solid phase binding assay, RAGE to CML-BSA. The conditions noted are these: Table 2. As for the experimental part:
(§1) Solid phase binding assays. Solid phase binding assays were used to study the ability of SAGEs to inhibit RAGE binding to its ligands. For studies of the effect of SAGEs on RAGE binding to its ligands, polyvinyl 96-well plates were coated with 5 μg/well of specific ligand (CML-BSA, HMGB-I or S100b calgranulin). Plates were incubated overnight at 4° C. and washed thrice with PBS-0.05% Tween-20 (PBST). Separately, RAGE-Fc chimera (100 μL containing 0.5 μg/ml in PBST-0.1% BSA) was incubated with an equal volume of serially diluted SAGEs (0.001 to 1,000 μg/ml in PBST-BSA) overnight at 4° C. The following day, 50 μL of RAGE-SAGE mix was transferred to each respective ligand-coated well and incubated at 37° C. for 2 h. Wells were then washed four times with PBST. To detect bound RAGE, 50 μL of anti-RAGE antibody (0.5 μg/ml) was added to each well, the mixture was incubated for 1 h at room temperature, and wells were washed again four times with PBST. Horse-radish peroxidase conjugated secondary antibody (1:10,000 antibody dilution in PBST; 50 μL per well) was added, wells were incubated for 1 h at room temperature, and then washed once with PBST. A colorimetric reaction was initiated by addition of 50 μL of tetramethyl benzidine chromogen (TMB single solution chromogen) and terminated after 15 min by addition of 50 μL of 1 N HCl. Absorbance at 450 nm was read using an automated microplate reader.

Another series has as its target T2, RAGE/HMGB1 (Homo sapiens, UniProt Q15109).
T2 construct: purchased R&D Systems (Minneapolis, Minn.)
The experiment in a line: Solid phase binding assay, RAGE to HMGB-1 (amphoterin). The settings on record: Table 2. As for the experimental part:
as §1

For another series, the target named is T3, P-Selectin/PSGL (Homo sapiens, UniProt P16109).
T3 construct: purchased R&D Systems (Minneapolis, Minn.)
T3 sequence (P16109 with tags, fused parts or gaps limits assumed): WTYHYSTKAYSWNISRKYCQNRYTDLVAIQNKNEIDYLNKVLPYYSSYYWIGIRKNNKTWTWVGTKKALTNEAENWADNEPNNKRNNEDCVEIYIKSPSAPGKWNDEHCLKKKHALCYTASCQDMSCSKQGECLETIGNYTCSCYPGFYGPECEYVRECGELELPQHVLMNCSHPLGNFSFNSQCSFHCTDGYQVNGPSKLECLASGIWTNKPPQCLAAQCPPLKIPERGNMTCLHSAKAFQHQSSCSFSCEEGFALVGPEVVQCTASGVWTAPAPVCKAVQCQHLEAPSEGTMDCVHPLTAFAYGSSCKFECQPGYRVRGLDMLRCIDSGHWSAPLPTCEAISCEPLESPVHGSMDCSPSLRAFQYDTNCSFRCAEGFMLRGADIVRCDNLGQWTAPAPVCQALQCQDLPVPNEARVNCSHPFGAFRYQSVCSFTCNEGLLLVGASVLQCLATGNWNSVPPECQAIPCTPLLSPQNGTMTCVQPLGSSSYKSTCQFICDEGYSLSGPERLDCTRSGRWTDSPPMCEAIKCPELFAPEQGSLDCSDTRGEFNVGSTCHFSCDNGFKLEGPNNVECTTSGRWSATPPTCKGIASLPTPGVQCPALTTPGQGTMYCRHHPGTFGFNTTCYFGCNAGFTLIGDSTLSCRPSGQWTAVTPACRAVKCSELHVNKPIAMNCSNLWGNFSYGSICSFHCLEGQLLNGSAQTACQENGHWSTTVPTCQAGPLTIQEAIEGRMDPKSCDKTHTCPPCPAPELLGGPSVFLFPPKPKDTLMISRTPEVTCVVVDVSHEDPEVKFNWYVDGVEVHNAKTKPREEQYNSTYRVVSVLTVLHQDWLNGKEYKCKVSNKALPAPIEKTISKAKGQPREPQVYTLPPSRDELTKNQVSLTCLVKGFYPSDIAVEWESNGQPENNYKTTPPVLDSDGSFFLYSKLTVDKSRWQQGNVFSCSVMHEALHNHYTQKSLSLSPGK
As to the kind of experiment: U937 monocyte binding to P-selectin (cell binding assay). The settings on record: Table 2; U937 binding to P-selectin-Fc. As for the experimental part: (§2) Cell Binding Assays. The effect of SAGEs on binding of U937 monocytes to P-selectin or RAGE was studied in high-bind micro plates coated with 8 μg/ml protein A ([…]) in 0.2 M carbonate-bicarbonate buffer (pH 9.4). Plates were washed with phosphate buffered saline containing 1% BSA (PBS-BSA), and P-selectin-Fc or RAGE-Fc chimera (50 μL containing 1 μg) was added to each well and incubated for 2 h at room temperature or overnight at 4° C., respectively. Following incubation, wells were washed twice with PBS-BSA. […] As a negative control, 50 μL of 10 mM EDTA was added to select wells to prevent cell binding through sequestration of calcium. At the end of the incubation period, 50 μL of U937 cells (10^5 cells/well, calcein-labeled according to manufacturer's instructions) were added to each well and plates were incubated an additional 30 min at room temperature. The wells were then washed thrice with PBS, and bound cells were lysed by addition of 100 μL of Tris-TritonX-100 containing buffer. Fluorescence was measured on a microplate reader using excitation of 494 nm and emission of 517 nm.

In another series the target is T4, RAGE/S100B (Homo sapiens, UniProt Q15109).
T4 construct: purchased R&D Systems (Minneapolis, Minn.)
T4 sequence (Q15109 with tags, fused parts or gaps limits assumed): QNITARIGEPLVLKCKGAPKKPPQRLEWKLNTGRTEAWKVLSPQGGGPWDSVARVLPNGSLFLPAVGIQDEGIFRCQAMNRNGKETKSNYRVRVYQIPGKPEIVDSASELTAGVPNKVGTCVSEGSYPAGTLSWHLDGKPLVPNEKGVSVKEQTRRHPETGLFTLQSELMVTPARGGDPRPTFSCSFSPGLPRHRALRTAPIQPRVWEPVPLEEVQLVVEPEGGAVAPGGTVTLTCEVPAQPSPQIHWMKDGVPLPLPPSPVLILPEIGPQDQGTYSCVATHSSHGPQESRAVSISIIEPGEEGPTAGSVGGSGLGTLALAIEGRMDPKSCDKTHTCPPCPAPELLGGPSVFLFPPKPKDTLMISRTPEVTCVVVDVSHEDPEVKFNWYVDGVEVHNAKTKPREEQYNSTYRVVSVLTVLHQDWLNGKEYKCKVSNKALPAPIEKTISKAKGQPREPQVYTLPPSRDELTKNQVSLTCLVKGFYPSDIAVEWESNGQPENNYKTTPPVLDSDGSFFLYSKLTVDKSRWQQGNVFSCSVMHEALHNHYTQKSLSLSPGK
As to the kind of experiment: Solid phase binding assay, RAGE to S100b calgranulin. The conditions noted are these: Table 2. As for the experimental part:
as §1

Another series concerns the target T5, human leukocyte elastase (Homo sapiens, UniProt P08246).
T5 sequence (P08246 30-267): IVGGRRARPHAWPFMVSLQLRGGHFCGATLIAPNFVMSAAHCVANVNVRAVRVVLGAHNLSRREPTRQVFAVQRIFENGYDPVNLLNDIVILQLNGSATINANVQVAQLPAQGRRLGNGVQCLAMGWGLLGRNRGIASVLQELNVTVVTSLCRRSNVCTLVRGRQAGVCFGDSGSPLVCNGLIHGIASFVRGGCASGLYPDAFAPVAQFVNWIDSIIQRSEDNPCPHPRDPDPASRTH
The experiment in a line: Human leukocyte elastase activity assay, chromogenic substrate. Format: biochemical. The settings on record: Table 2. The source says: Enzymatic assays. […] Nat Biotech 26:669-675, 2008).

In a further series the test system is RAGE. The experiment in a line: CML-BSA-induced RAGE expression in ARPE-19 cells (immunoblot). Format: cell-based, human. The settings on record: cells grown on CML-BSA. The source says:
Activated complement and RAGE induce angiogenic and pro-inflammatory signaling in cultured RPE cells. Experiments studying the biology of RAGE in cultured RPE cells using the ARPE-19 human RPE cell line were consucted. As shown in immunoblots (FIG. 17), ARPE-19 cells express at least 4 isoforms of RAGE ranging from 45-50 kDa in cell lysates, and secrete these isoforms into conditioned media. […] Because RAGE ligation activates the transcription factor NF-κB, enhanced expression of RAGE greatly promotes pro-inflammatory signaling. […] This would prevent “feed-forward” pro-inflammatory increases in RAGE expression itself by RAGE ligation.

A further series concerns the target T6, RAGE/Mac-1 (Homo sapiens, UniProt Q15109).
T6 construct: purchased R&D Systems (Minneapolis, Minn.)
The experiment in a line: U937 monocyte binding to RAGE (cell binding assay). The settings on record: Table 2; U937 binding to RAGE-Fc. As for the experimental part:
as §2

The subject of a further series is ARPE-19 cells. As to the kind of experiment: AGE-induced apoptosis of ARPE-19 cells (Live/Dead stain). The format is cell-based, human. The settings on record: AGE-BSA 25 μM, 40 h, test substance 200 μM. As for the experimental part: The ability of AGE products to induce RPE cell apoptosis was investigated. ARPE-19 cells were grown to confluence on round coverslips, then transferred to new dishes for exposure to 25 μM AGE-BSA for 40 h. Apoptosis was then assayed with Molecular Probes Fixable Live/Dead Cell Stain Kit (LI 1101, Eugene, Oreg.). […] Nuclei are stained […] with DAPI; dead cells are stained green. A. BSA control. Some dead cells are noted at the edges of the coverslip, but live and dead cells are interspersed at the interface. B. AGE-BSA (25 μM). Significant cell death is seen around the edges, and the boundary between live and dead cells is stark. C. AGE-BSA (25 μM)+ODSH (200 μM). […] D. AGE-BSA (25 μM)+P-OSMeHA (200 μM) (GM-11 1101). […] Apoptosis appeared to advance inward from the edges of cells cultured on round cover slips. RAGE is prominently expressed in RPE cells where it may be selectively expressed on the basal membrane as in other human epithelial cells. […] In contrast, AGE in drusen, which accumulates between retinal pigment epithelium and Bruch's membrane, would have ready access to basally located RAGE, optimally positioning AGE/RAGE signaling to mediate the localized RPE apoptosis that constitutes so-called “geographic atrophy” in age-related macular degeneration. […]

Series [1] concerns the target T7, Hageman factor (Factor XII) (Homo sapiens, UniProt P00748).
T7 sequence (P00748 20-615): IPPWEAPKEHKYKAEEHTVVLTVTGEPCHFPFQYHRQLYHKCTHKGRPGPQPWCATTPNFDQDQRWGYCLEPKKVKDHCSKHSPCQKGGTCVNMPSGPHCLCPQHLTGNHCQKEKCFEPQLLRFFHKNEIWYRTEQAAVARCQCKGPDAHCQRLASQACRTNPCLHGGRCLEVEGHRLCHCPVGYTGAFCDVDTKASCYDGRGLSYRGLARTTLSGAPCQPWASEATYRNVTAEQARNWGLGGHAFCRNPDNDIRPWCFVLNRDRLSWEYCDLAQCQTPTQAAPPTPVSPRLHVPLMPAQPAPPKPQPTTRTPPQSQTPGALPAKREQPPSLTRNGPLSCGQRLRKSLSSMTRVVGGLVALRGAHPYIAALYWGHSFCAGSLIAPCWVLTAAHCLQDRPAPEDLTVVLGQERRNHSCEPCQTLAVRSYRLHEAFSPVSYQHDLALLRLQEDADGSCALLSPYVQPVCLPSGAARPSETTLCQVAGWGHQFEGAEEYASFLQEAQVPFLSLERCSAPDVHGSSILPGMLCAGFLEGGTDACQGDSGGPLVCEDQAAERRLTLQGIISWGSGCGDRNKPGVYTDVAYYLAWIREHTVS
As to the kind of experiment: Activation of Hageman factor (Factor XII) in pooled human plasma, amidolytic activity. The settings on record: Table 2, table line reads IC50 values.
Protocol: Enzymatic assays. […] Pooled human plasma (5 μl) was incubated with 100 μl of SAHA (0.1 to 1000 μg/ml) in 0.05 M HEPES containing Triton X-100 for 5 min at 5° C.
SAGEs were screened for their ability to stimulate intrinsic coagulation (activation of Hageman factor). Pooled human plasma was incubated with heparin or low molecular weight (Lmw) sulfated and fluoroalkylated HAs (Lmw-OSFHA-1, Lmw-OSFHA-2) and amidolytic activity was determined using the substrate D-cyclohydrotyrosyl-Gly-Arg-p-NA.

Another series concerns IIa. The experiment in a line: Anti-IIa anticoagulant activity. The format is biochemical.
The next series deals with Xa. As to the kind of experiment: Anti-Xa anticoagulant activity. The format is biochemical.

“Also recorded” adds a separate entry of the source.

T1 sequence (Q15109 with tags, fused parts or gaps limits assumed): as the sequence (Q15109 with tags, fused parts or gaps limits assumed) above
T6 sequence (Q15109 with tags, fused parts or gaps limits assumed): as the sequence (Q15109 with tags, fused parts or gaps limits assumed) above
T2 sequence (Q15109 with tags, fused parts or gaps limits assumed): as the sequence (Q15109 with tags, fused parts or gaps limits assumed) above

“2-0, 3-0 desulfated heparin [ODSH, reference compound]”: the RAGE/CML-BSA at RAGE/CML-BSA turned out to be 8.6 µg/mL. Further, the RAGE/HMGB1 at RAGE/HMGB1 came out at 0.23 µg/mL. This substance came in with a P-Selectin/PSGL on P-Selectin/PSGL of 1.1 µg/mL. Moreover, the RAGE/S100B on RAGE/S100B was 4.2 µg/mL. The “Leukocyte Elastase” value on human leukocyte elastase worked out at 0.22 µg/mL. The “up-regulation of RAGE expression” value in the series with RAGE is “prevented up-regulation of RAGE expression”. In addition, the RAGE/Mac-1 on RAGE/Mac-1 was determined as 0.09 µg/mL. Moreover, in the series with ARPE-19 cells, the AGE-induced apoptosis entry was “Apoptosis is reduced; also recorded: inhibited”.

Regarding Heparin [reference compound], the RAGE/CML-BSA at RAGE/CML-BSA was found to be 0.39 µg/mL. At RAGE/HMGB1, this substance displayed an RAGE/HMGB1 of 0.04 µg/mL. Also, the P-Selectin/PSGL at P-Selectin/PSGL stood at 0.3 µg/mL. For the same substance, the “Hageman Factor” value in series [1] came out at 0.4 µg/mL. Moreover, the RAGE/S100B at RAGE/S100B was found to be 1.29 µg/mL. For the same substance, the “Leukocyte Elastase” value at human leukocyte elastase turned out to be 0.21 µg/mL. The RAGE/Mac-1 at RAGE/Mac-1 was 0.11 µg/mL. The substance further had an anti-IIa anticoagulant activity in the series on IIa of 150 U/mg. Further, the anti-Xa anticoagulant activity with Xa was determined as 150 U/mg.

The values are drawn from US8399430B2, “Alkylated semi synthetic glycosaminoglycosan ethers, and methods for making and using thereof” (University of Utah Research Foundation, priority 2008, dated 2013).
